According to US20230373930A1, “AMINOIMIDAZOLE FPR2 AGONISTS” (BRISTOL-MYERS SQUIBB COMPANY, priority 2020, published 2023):
pEC50: −log10 of the molar value.

Columns and labels:
human FPR2 = molecular target: T1, human FPR2 (Homo sapiens, UniProt P25090); test: FPR2 cyclic adenosine monophosphate (cAMP) assay; format: cell-based; conditions: CHO cells overexpressing human FPR2; forskolin 5 μM; inhibition of cAMP production; HTRF; read-out: hFPR2 cAMP2 EC50
T1 sequence (P25090 1-351): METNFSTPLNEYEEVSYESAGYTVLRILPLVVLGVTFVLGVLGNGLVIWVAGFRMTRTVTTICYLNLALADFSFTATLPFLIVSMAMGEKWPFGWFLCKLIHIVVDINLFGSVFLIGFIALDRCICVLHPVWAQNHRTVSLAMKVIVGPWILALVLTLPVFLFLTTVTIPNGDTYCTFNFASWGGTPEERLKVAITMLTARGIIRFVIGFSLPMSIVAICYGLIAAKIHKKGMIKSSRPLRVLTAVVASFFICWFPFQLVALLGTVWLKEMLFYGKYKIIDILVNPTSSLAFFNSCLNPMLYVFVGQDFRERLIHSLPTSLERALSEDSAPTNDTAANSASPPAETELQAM
Procedure: (§1) FPR2 and FPR1 Cyclic Adenosine Monophosphate (cAMP) Assays. A mixture of forskolin (5 μM final for FPR2 or 10 μM final for FPR1) and IBMX (200 μM final) were added to 384-well Proxiplates (Perkin-Elmer) pre-dotted with test compounds in DMSO (1% final) at final concentrations in the range of 0.020 nM to 100 μM. Chinese Hamster Ovary cells (CHO) overexpressing human FPR1 or human FPR2 receptors were cultured in F-12 (Ham's) medium supplemented with 10% qualified FBS, 250 μg/ml zeocin and 300 μg/ml hygromycin (Life Technologies). Reactions were initiated by adding 2,000 human FPR2 cells per well or 4,000 human FPR1 cells per well in Dulbecco's PBS (with calcium and magnesium) (Life Technologies) supplemented with 0.1% BSA (Perkin-Elmer). The reaction mixtures were incubated for 30 min at room temperature. The level of intracellular cAMP was determined using the HTRF HiRange cAMP assay reagent kit (Cisbio) according to manufacturer's instruction. Solutions of cryptate conjugated anti-cAMP and d2 flurorophore-labelled cAMP were made in a supplied lysis buffer separately. Upon completion of the reaction, the cells were lysed with equal volume of the d2-cAMP solution and anti-cAMP solution. After a 1-h room temperature incubation, time-resolved fluorescence intensity was measured using the Envision (Perkin-Elmer) at 400 nm excitation and dual emission at 590 nm and 665 nm. A calibration curve was constructed with an external cAMP standard at concentrations ranging from 1 μM to 0.1 μM by plotting the fluorescent intensity ratio from 665 nm emission to the intensity from the 590 nm emission against cAMP concentrations. The potency and activity of a compound to inhibit cAMP production was then determined by fitting to a 4-parametric logistic equation from a plot of cAMP level versus compound concentrations.

human FPR1 = molecular target: T2, human FPR1 (Homo sapiens, UniProt P21462); test: FPR1 cyclic adenosine monophosphate (cAMP) assay; format: cell-based; conditions: CHO cells overexpressing human FPR1; forskolin 10 μM; inhibition of cAMP production; HTRF; read-out: hFPR1 cAMP2 EC50
T2 sequence (P21462 1-350): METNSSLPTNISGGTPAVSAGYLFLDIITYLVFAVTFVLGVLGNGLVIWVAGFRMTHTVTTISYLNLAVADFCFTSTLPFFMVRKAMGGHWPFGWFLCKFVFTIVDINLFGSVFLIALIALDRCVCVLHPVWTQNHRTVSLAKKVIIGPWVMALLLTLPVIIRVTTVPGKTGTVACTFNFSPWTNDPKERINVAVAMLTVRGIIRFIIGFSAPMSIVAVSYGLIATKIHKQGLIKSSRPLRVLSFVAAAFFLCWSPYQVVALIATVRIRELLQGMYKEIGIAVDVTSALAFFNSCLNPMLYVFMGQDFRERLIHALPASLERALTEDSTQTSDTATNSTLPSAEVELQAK
Procedure: as §1

Row | SMILES | pEC50 (human FPR2) | pEC50 (human FPR1)
1 | COc1ccc(-n2cc(-c3ccccc3F)nc2NC(=O)c2ccc(OC(F)F)cc2)cc1 [Example 25, 4-(Difluoromethoxy)-N-[4-(2-fluorophenyl)-1-(4-methoxyphenyl)-1H-imidazol-2-yl]benzamide] | 8.22 | 7.33
2 | COc1ccc(-n2cc(-c3cc4cc(Cl)ccc4o3)nc2NC(=O)c2ccc(OC(F)F)cc2)cc1 [Example 26, N-[4-(5-Chloro-1-benzofuran-2-yl)-1-(4-methoxyphenyl)-1H-imidazol-2-yl]-4-(difluoromethoxy)benzamide] | 7.14 | 6.40
3 | COc1ccc(-n2cc(C3CCCCC3)nc2NC(=O)c2ccc(OC(F)F)cc2)cc1 [Example 27, N-[4-Cyclohexyl-1-(4-methoxyphenyl)-1H-imidazol-2-yl]-4-(difluoromethoxy)benzamide] | 7.26 | 6.18
4 | COc1ccc(-n2cc(-c3ccccn3)nc2NC(=O)c2ccc(OC(F)F)cc2)cc1 [Example 28, 4-(Difluoromethoxy)-N-[1-(4-methoxyphenyl)-4-(pyridin-2-yl)-1H-imidazol-2-yl]benzamide] | 6.15 | 5.99
5 | CCOC(=O)c1cc(-c2cn(-c3ccc(OC)cc3)c(NC(=O)c3ccc(OC(F)F)cc3)n2)on1 [Example 29, Ethyl 5-{2-[4-(difluoromethoxy)benzamido]-1-(4-methoxyphenyl)-1H-imidazol-4-yl}-1,2-oxazole-3-carboxylate] | 7.82 | 7.49
6 | CCOC(=O)c1cn(-c2ccc(OC)cc2)c(NC(=O)c2ccc(OC(F)F)cc2)n1 [Example 30, Ethyl 2-[4-(difluoromethoxy)benzamido]-1-(4-methoxyphenyl)-1H-imidazole-4-carboxylate] | 8.05 | 7.00
7 | COc1ccc(-n2cc(C34CC5CC(CC(C5)C3)C4)nc2NC(=O)c2ccc(OC(F)F)cc2)cc1 [Example 31, N-[4-(Adamantan-1-yl)-1-(4-methoxyphenyl)-1H-imidazol-2-yl]-4-(difluoromethoxy)benzamide] | 6.49 | < 5.00
8 | COc1ccc(-n2cc(C(C)(C)C)nc2NC(=O)c2ccc(OC(F)F)cc2)cc1 [Example 32, N-[4-Tert-butyl-1-(4-methoxyphenyl)-1H-imidazol-2-yl]-4-(difluoromethoxy)benzamide] | 7.74 | 6.96
9 | COc1cc(F)c(-n2cc(-c3ccccc3F)nc2NC(=O)c2ccc(OC(F)F)cc2)c(F)c1 [Example 33, N-[1-(2,6-Difluoro-4-methoxyphenyl)-4-(2-fluorophenyl)-1H-imidazol-2-yl]-4-(difluoromethoxy)benzamide] | 7.41 | 6.03
10 | COc1cc(F)c(-n2cc(-c3ccnc(Cl)c3)nc2NC(=O)c2ccc(OC(F)F)cc2)c(F)c1 [Example 34, N-[4-(2-Chloropyridin-4-yl)-1-(2,6-difluoro-4-methoxyphenyl)-1H-imidazol-2-yl]-4-(difluoromethoxy)benzamide] | 7.80 | 6.92
11 | COc1cc(F)c(-n2cc(CC(C)C)nc2NC(=O)c2ccc(OC(F)F)cc2)c(F)c1 [Example 35, N-[1-(2,6-Difluoro-4-methoxyphenyl)-4-(2-methylpropyl)-1H-imidazol-2-yl]-4-(difluoromethoxy)benzamide] | 7.00 | 5.85
12 | COc1cc(F)c(-n2cc(-c3ccc(F)c(F)c3)nc2NC(=O)c2ccc(OC(F)F)cc2)c(F)c1 [Example 36, N-[1-(2,6-Difluoro-4-methoxyphenyl)-4-(3,4-difluorophenyl)-1H-imidazol-2-yl]-4-(difluoromethoxy)benzamide] | 7.51 | 6.49
13 | COc1cc(F)c(-n2cc(C3CC3)nc2NC(=O)c2ccc(OC(F)F)cc2)c(F)c1 [Example 37, N-[4-Cyclopropyl-1-(2,6-difluoro-4-methoxyphenyl)-1H-imidazol-2-yl]-4-(difluoromethoxy)benzamide] | 7.80 | 6.10
14 | CCOC(=O)c1cn(-c2c(F)cc(OC)cc2F)c(NC(=O)c2ccc(OC(F)F)cc2)n1 [Example 38, Ethyl 1-(2,6-difluoro-4-methoxyphenyl)-2-[4-(difluoromethoxy)benzamido]-1H-imidazole-4-carboxylate] | 7.82 | 6.21
15 | CCc1cn(-c2c(F)cc(OC)cc2F)c(NC(=O)c2ccc(OC(F)F)cc2)n1 [Example 39, N-[1-(2,6-Difluoro-4-methoxyphenyl)-4-ehtyl-1H-imidazol-2-yl]-4-(difluoromethoxy)benzamide] | 7.68 | 6.00
16 | COc1cc(F)c(-n2cc(-c3nccs3)nc2NC(=O)c2ccc(OC(F)F)cc2)c(F)c1 [Example 40, N-[1-(2,6-Difluoro-4-methoxyphenyl)-4-(1,3-thiazol-2-yl)-1H-imidazol-2-yl]-4-(difluoromethoxy)benzamide] | 7.96 | 6.00
17 | COc1cc(F)c(-n2cc(C3CCOCC3)nc2NC(=O)c2ccc(OC(F)F)cc2)c(F)c1 [Example 41, N-[1-(2,6-Difluoro-4-methoxyphenyl)-4-(oxan-4-yl)-1H-imdiazol-2-yl]-4-(difluoromethoxy)benzamide] | 7.59 | 6.64
18 | COc1ccc(-n2cc(C(F)(F)C(F)(F)F)nc2NC(=O)c2ccc(OC(F)F)cc2)cc1 [Example 42, 4-(Difluoromethoxy)-N-[1-(4-methoxyphenyl)-4-(1,1,2,2,2-pentafluoroethyl)-1H-imidazol-2-yl]benzamide] | 7.32 | 7.24
19 | COc1ccc(-n2cc(C(F)(F)F)nc2NC(=O)c2ccc(OC(F)F)cc2)cc1 [Example 43, 4-(Difluoromethoxy)-N-[1-(4-methoxyphenyl)-4-(trifluoromethyl)-1H-imidazol-2-yl]benzamide] | 8.00 | 7.40
20 | COc1cc(F)c(-n2cc(C(=O)NCc3cc[nH]n3)nc2NC(=O)c2ccc(OC(F)F)cc2)c(F)c1 [Example 44, 1-(2,6-Difluoro-4-methoxyphenyl)-2-[4-(difluoromethoxy)benzamido]-N-[(1H-pyrazol-3-yl)methyl]-1H-imidazole-4-carboxamide] | 7.32 | 6.43
21 | COc1ccc(-n2cc(C(=O)N3CCNCC3)nc2NC(=O)c2ccc(OC(F)F)cc2)cc1 [Example 45, 4-(Difluoromethoxy)-N-[1-(4-methoxyphenyl)-4-(piperazine-1-carbonyl)-1H-imidazol-2-yl]benzamide] | 7.85 | 6.15
22 | COc1ccc(-n2cc(C(=O)NCCCO)nc2NC(=O)c2ccc(OC(F)F)cc2)cc1 [Example 46, 2-[4-(Difluoromethoxy)benzamido]-N-(3-hydroxypropyl)-1-(4-methoxyphenyl)-1H-imidazole-4-carboxamide] | 7.57 | 6.68
23 | COc1cc(F)c(-n2cc(C(=O)NCc3cccnc3)nc2NC(=O)c2ccc(OC(F)F)cc2)c(F)c1 [Example 47, 1-(2,6-Difluoro-4-methoxyphenyl)-2-[4-(difluoromethoxy)benzamido]-N-[(pyridin-3-yl)methyl]-1H-imidazole-4-carboxamide] | 7.46 | 6.96
24 | COc1cc(F)c(-n2cc(C(=O)NCc3ccncc3)nc2NC(=O)c2ccc(OC(F)F)cc2)c(F)c1 [Example 48, 1-(2,6-Difluoro-4-methoxyphenyl)-2-[4-(difluoromethoxy)benzamido]-N-[(pyridin-4-yl)methyl]-1H-imidazole-4-carboxamide] | 6.96 | 6.22
25 | COc1cc(F)c(-n2cc(C(=O)NC3CCC(O)CC3)nc2NC(=O)c2ccc(OC(F)F)cc2)c(F)c1 (centres unmarked) [Example 49, 1-(2,6-Difluoro-4-methoxyphenyl)-2-[4-(difluoromethoxy)benzamido]-N-(4-hydroxycyclohexyl)-1H-imidazole-4-carboxamide] | 7.05 | 6.12
